Data on 7 compounds can be found in patent US7488759B2, “Malic acid addition salts of terbinafine” (Novartis AG, priority 2001, dated 2009).

For orientation: AUC means the area under the concentration-time curve, a measure of exposure. By Cmax is commonly meant the maximum level reached in the sampled fluid or tissue.

Series [1] in a line: solubility in water and organic solvents. It is filed as physicochemical. The note with it: for solubility: 25 °C. From the text:
They thus form crystals more readily than the hydrochloride or the free base. […] Polymorphs have different dissolution rates, milling behaviour and stability, e.g. in galenical forms where the pharmaceutically active compound is in solid form, such as tablets or suspensions, and they influence bioavailability. The surprising presence of polymorphism is therefore advantageous in terms of improved processability, such as with polymorph particularly stable thermodynamically, in formulations with compound in solid form, e.g. tablets or suspensions, or with polymorph having a particularly high dissolution rate or solubility, in formulations with dissolved compound, e.g. nail lacquers. The compounds of the invention are therefore better processable for e.g. large scale tablet formulation; they also have favourable penetration/permeation properties and can thus readily be formulated into topical forms, such as nail lacquers. […] Further, they are non-hygroscopic, thus providing stable formulations while minimizing the risk of intrinsic chemical breakdown.

Details of series [2]: AUC increase factor in steady state vs single dose: unit not given beside the values. The conditions noted are these: cited from earlier work.
Series [3] can be described thus: pharmacokinetic study in Beagle dogs, oral capsules. The note with it: 7 Beagle dogs, oral capsule 62.5 mg base equivalent. It is filed as in vivo. How it is done: This appears i.a. from a pharmacokinetic study in animals involving 7 Beagle dogs weighing about 10 kg, aged about 5 years, upon oral administration of capsules prepared by mixing active terbinafine salt substance [hydrochloride or L-(−)-hydrogen malate; 62.5 mg base equivalent per capsule] with lactose in a ratio of 1:1 w/w and filling into appropriate hard gelatine capsules (particle size distribution similar for both salts).

Series [4] deals with CYP2D6 (Homo sapiens, UniProt P10635). The conditions noted are these: cited from earlier work.
A short description of series [5]: in vitro nail penetration/permeation assay (modified Franz cell). It is filed as in vitro ADME, human. The note with it: 72 hours, 1% solution. How it is done:
Human cadaveric toe nails are used in a Franz cell (FIG. 1) modified to accept cadaveric human toenails by having a pair of flexible rings made of a silicone elastomer (PDMS) having good sealant properties to adequately mount hard nails, using liquid scintillation counting (LSC) (picogram limit of detection) to measure the increase in radioactivity in the acceptor compartment. Each measurement is effected in triplicate. 90 randomly selected nails are exposed for 72 hours to a solution of 100 μl of ^14C-labelled terbinafine hydrochloride or terbinafine L-(−)-hydrogen malate (form A) solution [25 μBq/ml; 1% active product; 5% 1,2-propylene glycol; 2% Cetomacrogol-1000® (polyoxyethylene-glycol-1000-monoacetylether); 25% ethanol 94%; 67% distilled water] (w/w). Each area of the nail exposed to the formulation has a 9 mm diameter (about 64 mm^2). Exposure is effected under occlusive (chamber closed to air) and non-occlusive (chamber open to air) conditions.
The radiolabelled product is detectable in the buffer-filled receptor chamber from about 8 hours of incubation. Its concentration in the receptor chamber as measured by LSC increases with incubation time and concentration of applied formulation. A total of 24 penetration chambers are used in parallel. Each formulation is measured in triplicate.

Where [6] appears, read: human subjects, single 250 mg terbinafine dose.
Where [7] appears, read: steady state after several days dosing.
[8] abbreviates: ethanol, organic solvent or mixture, read-out: solubility in ethanol.
The mark [9] stands for this setting: Beagle, dog, plasma, po, 62.5 mg.

Structures can show the parent of a compound that is named as a salt. Where two headings read alike, the source gives them in different places. A value given as a limit tells only on which side of the number the result lay.

Chain of CYP2D6 (P10635 whole entry): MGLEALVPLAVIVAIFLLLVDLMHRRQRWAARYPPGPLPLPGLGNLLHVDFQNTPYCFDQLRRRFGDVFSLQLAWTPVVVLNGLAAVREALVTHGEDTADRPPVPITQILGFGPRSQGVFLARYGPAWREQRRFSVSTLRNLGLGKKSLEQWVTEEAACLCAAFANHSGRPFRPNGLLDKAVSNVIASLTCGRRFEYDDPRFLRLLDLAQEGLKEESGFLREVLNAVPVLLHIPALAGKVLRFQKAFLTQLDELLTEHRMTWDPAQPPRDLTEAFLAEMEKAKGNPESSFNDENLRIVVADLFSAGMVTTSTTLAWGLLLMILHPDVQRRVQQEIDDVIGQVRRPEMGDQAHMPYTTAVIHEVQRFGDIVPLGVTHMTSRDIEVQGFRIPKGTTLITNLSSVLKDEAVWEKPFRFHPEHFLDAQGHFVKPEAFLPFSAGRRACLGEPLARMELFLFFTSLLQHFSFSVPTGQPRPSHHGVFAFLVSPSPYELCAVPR

On to `CN(C/C=C/C#CC(C)(C)C)Cc1cccc2ccccc12` [Example 2, Terbinafine L-(−)-hydrogen malate (polymorph form B)], for which the solubility in water in series [1] (25°) is 15 mg/mL.

Regarding `CN(C/C=C/C#CC(C)(C)C)Cc1cccc2ccccc12` [terbinafine hydrochloride], the “increase in AUC with a fat-rich meal” value in series [2] (administered with a fat-rich meal) is given as 42%. Also, in series [2] (setting [6]), the “Peak drug plasma concentration (Cmax)” value was “about 1.3 μg/ml” and the “area under the curve over 24 hours (AUC)” value is “about 4.76 μg·hour/ml”. In series [2] (human, in vivo), the effective half-life entry was “about 36 hours”. Besides, the reduction of clearance entry in series [2] (patients with renal impairment (creatinine clearance ≤50 ml/min) or hepatic cirrhosis) is reported as “approximately 50%”. In series [2] (setting [7]), the “AUC increase factor in steady state vs single dose” value is on record as 2.5 and the “Cmax higher in steady state vs single dose” value is given as 25%. In addition, in series [3] (hydrochloride), the “coefficient of variation (CV) of AUC, inter-animal variability” value stood at 39%; the “mean AUC” value came to 348 ng·h/mL; the “mean Cmax” value stood at 146 ng/mL.

As for `CN(C/C=C/C#CC(C)(C)C)Cc1cccc2ccccc12` (racemic) [Example 5, Terbinafine DL-(±)-hydrogen malate], the solubility in series [1] (setting [8]) is > 50 mg/mL; in series [1] (ethyl acetate, organic solvent or mixture, read-out: solubility in ethyl acetate) it was ~17 mg/mL; in series [1] (water, water, read-out: solubility in water), ~7 mg/mL.

As for `CN(C/C=C/C#CC(C)(C)C)Cc1cccc2ccccc12` [Terbinafine, (E)-N-methyl-6,6-dimethyl-N-(1-naphthylmethyl)hept-2-en-4-inyl-1-amine], the “inhibition of CYP2D6” value in series [4] is reported as “potent inhibitor”.

Consider `CN(C/C=C/C#CC(C)(C)C)Cc1cccc2ccccc12` [Example 4, Terbinafine D-(+)-hydrogen malate], for which, in series [1] (25°), the solubility in water was ~7 mg/mL.

With `CN(C/C=C/C#CC(C)(C)C)Cc1cccc2ccccc12` [Example 1, Terbinafine L-(−)-hydrogen malate (polymorph form A)], the “amount recovered in receptor chamber (permeation)” value was ~41 ng in series [5] (non-occlusive conditions) and “about 63 ng” in series [5] (occlusive conditions). For the same compound, in series [1] (25°), the “solubility in ethyl acetate” value is > 30 mg/mL. In addition, in series [1] (25°), the solubility in water is ~12 mg/mL. The solubility in ethanol in series [1] (25°, listed as Example 3) is > 50 mg/mL. Besides, the solubility was > 30 mg/mL in series [1] (aqueous with cosolvent or surfactant or cyclodextrin, solubility, read-out: solubility in ethane/water 2:8 v/v) and > 30 mg/mL in series [1] (setting [8]).

Turning to `CN(C/C=C/C#CC(C)(C)C)Cc1cccc2ccccc12` [L-(−)-hydrogen malate, terbinafine L-(−)-hydrogen malate], the “coefficient of variation (CV) of AUC, inter-animal variability” value in series [3] amounted to 30%. Further, in series [3] (setting [9]), the AUC is 392 ng·h/mL and the highest concentration (Cmax) was determined as 134 ng/mL. Further, in series [1] (25°), the “solubility in ethyl acetate” value was > 30 mg/mL and the solubility in water is 12 to 15 mg/mL.
